Reference: patent US4438120A, “Pyridoindolobenzodiazepine tranquilizers” (E. I. Du Pont de Nemours & Company, priority 1982, dated 1984)

Tested on: Conditioned Avoidance Response (CAR)
Experiment: Conditioned Avoidance Response (CAR) test in mice, oral
Type: in vivo, mouse (female white mice)
Settings: female white mice, moving average method
Experimental: The paradigm used for predicting tranquilizer activity was a Conditioned Avoidance Response (CAR) test in mice. Female white mice, 19-23 g, were used. The apparatus modified from Bovet, D. et al., Science, 163, 139-149 (1969), was a one-way shuttlebox with 0.4 mA scrambled electric footshock as unconditioned stimulus (US) and a 6 watt white light plus a relay buzzer as conditioned stimuli (CS). Mice were conditioned by three sets of 1-5 trials on day 1, then were fasted for 17-21 hours. The conditioned mice were tested for retention of the conditioned response on day 2, and then were dosed orally with test drug at doses such as 0, 1, 3, 9, 27 and 81 mg/kg. ED50 values (doses at which 50% of the animals would be expected to show response failure) were calculated by the moving average method [Thompson, W. R., Bact. Rev., 11, 115 (1947)].

| Compound | Mouse CAR ED50 (avoidance ED50, dose at which 50% of the animals would be expected to show response failure) |
| --- | --- |
| Clc1ccc2c(c1)CNc1cccc3c4c(n-2c13)CCNC4 [Example 61] | 34 mg/kg |
| CN1Cc2ccccc2-n2c3c(c4cc(C(F)(F)F)cc1c42)CNCC3 [Example 62] | > 81 mg/kg |
| Clc1cc2c3c(c1)c1c(n3-c3ccccc3CN2)CCN(CC2CCCCC2)C1 [Example 68, 6-Chloro-3-cyclohexylmethyl-1,2,3,4,8,9-hexahydropyrido[4',3':2,3]indolo[1,7-ab][1,4]benzodiazepine] | 7.1 mg/kg |
| Clc1ccc2c(c1)CNc1cccc3c4c(n-2c13)CCN(CCc1ccccc1)C4 [Example 69] | 27 mg/kg |
